Experimental data published in PMC8956739, “A synthetic lipopeptide targeting top-priority multidrug-resistant Gram-negative pathogens” (Nature Communications, 2022).
≈ marks a conversion by molar mass, not a printed value. Where “and” joins values, the source holds several entries; their conditions need not be identical. Identical values can stand only once. Residues, ends and D or L forms follow the SMILES beside them.

Experiments:
[1] = test system: P. aeruginosa FADDI-PA025; type: cell-based, Pseudomonas aeruginosa; conditions: FADDI-PA025
Procedure, shortened: (§1)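 MICs were determined by broth microdilution in cation-adjusted Mueller–Hinton broth (CaMHB), with clinical isolates tested alongside ATCC strains.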

[2] = test system: P. aeruginosa FADDI-PA038; type: cell-based, Pseudomonas aeruginosa; conditions: FADDI-PA038
Procedure, shortened: as §1

P. aeruginosa ATCC 27853 [3] = type: cell-based, Pseudomonas aeruginosa; conditions: ATCC 27853
Procedure, shortened: (§2)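 Read-out is the minimum inhibitory concentration, obtained by serially diluting compound in cation-adjusted Mueller–Hinton medium and exposing each isolate in microdilution format.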

[4] = test system: K. pneumoniae FADDI-KP065; type: cell-based, Klebsiella pneumoniae; conditions: FADDI-KP065
Procedure, shortened: as §1

[5] = test system: K. pneumoniae FADDI-KP032; type: cell-based, Klebsiella pneumoniae; conditions: FADDI-KP032
Procedure, shortened: as §1

[6] = Acute toxicity in mice (maximum tolerated dose, IV bolus); type: in vivo, mouse; conditions: mouse, in vivo, iv, single IV bolus dose, replicates 1-4; read-out: MTD, single replicate
Description: (§3) Lipopeptide solutions were prepared in 0.9% saline and stored at 4 °C before use. Swiss mice (female, 7-week-old, 22–28 g) were used in the study. A mouse was administered an intravenous bolus of the lipopeptide (mg/kg free base) through a lateral tail vein (≤0.1 mL). After the injection, the mouse was released back into the cage and monitored for clinical signs of toxicity from 0 to 24 h after injection as follows: every 10 min in the first 2 h, every half hour from 2 to 4 h, every hour from 4 to 12 h, and every 2 h from 12 to 24 h.

Swiss mice = experiment: as above; type: in vivo, mouse; conditions: replicates 1-4
Description: as §3

A. baumannii ATCC 19606 = type: cell-based, Acinetobacter baumannii; conditions: ATCC 19606
Procedure, shortened: as §2

A. baumannii FADDI-AB034 = type: cell-based, Acinetobacter baumannii; conditions: FADDI-AB034
Procedure, shortened: as §1

A. baumannii FADDI-AB030 = type: cell-based, Acinetobacter baumannii; conditions: FADDI-AB030
Procedure, shortened: as §1

P. aeruginosa ATCC 27853 [7] = experiment: Neutropenic mouse bloodstream infection model; type: in vivo; conditions: single IV dose 4 mg/kg; for Log10 CFU/mL blood at 4 h, Mean / Δlog10 CFU/mL blood (mean) / Log10 CFU/mL blood at 4 h, single mouse: 4 h; for Δlog10 CFU/mL blood (mean): treated minus control, mean of replicates; for Δlog10 CFU/mL blood (mean) / Log10 CFU/mL blood at 4 h, single mouse / Delta Log10 CFU/mL blood at 4 h, single mouse: 4 mg/kg; for Delta Log10 CFU/mL blood at 4 h, single mouse: treated mouse minus mean of vehicle mice
Procedure, shortened: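 Female Swiss mice made neutropenic with cyclophosphamide (150 mg/kg day −4, 100 mg/kg day −1), infected IV with 50 µL of 4 × 10^8 CFU/mL. Lipopeptide 4 mg/kg (free base) IV at 2 h post-inoculation, n = 3. Efficacy = Δlog10 CFU/mL blood versus saline at 4 h post-dose.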

Swiss mice, kidney = experiment: Nephrotoxicity in mice (kidney histopathology); type: in vivo, mouse; conditions: for Kidney histopathology (SQS Score): 72 mg/kg/d subcutaneously in six divided doses every 2 h, n = 3; for Kidney histopathology, mice with the SQS score: mouse, in vivo
Procedure, shortened: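 Female Swiss mice (7-week-old, 22–28 g) received lipopeptides in saline either s.c. at 12 mg/kg ×6 every 2 h (total 72 mg/kg, n = 3) or i.p. at 20 or 25 mg/kg ×6 every 2 h (total 120 mg/kg, n = 6; 150 mg/kg, n = 3). Right kidney collected 20 h after last dose, fixed in 10% buffered formalin (pH 7.4), histology scored blinded.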

human subjects = conditions: in vivo; cited from earlier work

Molecule: CC[C@@H]1NC(=O)[C@@H](CC(C)C)NC(=O)[C@H](CCN)NC(=O)[C@@H](NC(=O)[C@H](CN)NC(=O)[C@@H](NC(=O)[C@H](CCN)NC(=O)c2cc(Cl)cc(Cl)c2)[C@@H](C)O)CCNC(=O)[C@H]([C@@H](C)O)NC(=O)[C@H](CCN)NC(=O)[C@H](CCN)NC1=O [Lipopeptide F381] (HELM PEPTIDE1{[O=C(c1cc(Cl)cc(Cl)c1)[*:2]].[Dab].T.[NC[C@H](N[*:1])C(=O)[*:2]].[Dab].[Dab].[dL].[Abu].[Dab].[Dab].T}$PEPTIDE1,PEPTIDE1,5:R3-11:R2$$$V2.0)
- MIC P. aeruginosa FADDI-PA025 [1]: 0.5 µg/mL (≈ 0.431 µM)
- MIC P. aeruginosa FADDI-PA038 [2]: 1 µg/mL (≈ 0.862 µM)
- MIC P. aeruginosa ATCC 27853 (P. aeruginosa ATCC 27853 [3]): 0.25 µg/mL (≈ 0.215 µM)
- MIC, No Survanta (P. aeruginosa ATCC 27853 [3]): 0.5 µg/mL (≈ 0.431 µM)
- MIC K. pneumoniae FADDI-KP065 [4]: 0.5 µg/mL (≈ 0.431 µM)
- MIC K. pneumoniae FADDI-KP032 [5]: <0.125 µg/mL
- MTD [6]: 5 mg/kg
- MTD, single replicate (Swiss mice): 4.7 mg/kg and 4 mg/kg
- MIC A. baumannii ATCC 19606 (A. baumannii ATCC 19606): 0.5 µg/mL (≈ 0.431 µM)
- MIC A. baumannii FADDI-AB034 (A. baumannii FADDI-AB034): 0.25 µg/mL (≈ 0.215 µM)
- MIC A. baumannii FADDI-AB030 (A. baumannii FADDI-AB030): 0.25 µg/mL (≈ 0.215 µM)
- Log10 CFU/mL blood at 4 h, Mean (P. aeruginosa ATCC 27853 [7]): 4.49 Log10 CFU/mL blood
- Δlog10 CFU/mL blood (mean) (P. aeruginosa ATCC 27853 [7]): −3.45 log10 CFU/mL blood
- Log10 CFU/mL blood at 4 h, single mouse (P. aeruginosa ATCC 27853 [7]): 4.47 Log10 CFU/mL blood and 4.87 Log10 CFU/mL blood and 4.12 Log10 CFU/mL blood
- Delta Log10 CFU/mL blood at 4 h, single mouse (P. aeruginosa ATCC 27853 [7]): -3.47 Log10 CFU/mL blood and -3.07 Log10 CFU/mL blood and -3.82 Log10 CFU/mL blood
- Kidney histopathology (SQS Score) (Swiss mice, kidney): +1 (SQS + 1 = mild damage (overall score, 1 to <15))
- Kidney histopathology, mice with the SQS score (Swiss mice, kidney): 1/3

Molecule: CC[C@@H]1NC(=O)[C@@H](CC(C)C)NC(=O)[C@H](CCN)NC(=O)[C@@H](NC(=O)[C@H](CN)NC(=O)[C@@H](NC(=O)[C@H](CCN)NC(=O)c2ccc(-c3ccccc3)cc2)[C@@H](C)O)CCNC(=O)[C@H]([C@@H](C)O)NC(=O)[C@H](CCN)NC(=O)[C@H](CCN)NC1=O [Lipopeptide F477] (HELM PEPTIDE1{[O=C(c1ccc(-c2ccccc2)cc1)[*:2]].[Dab].T.[NC[C@H](N[*:1])C(=O)[*:2]].[Dab].[Dab].[dL].[Abu].[Dab].[Dab].T}$PEPTIDE1,PEPTIDE1,5:R3-11:R2$$$V2.0)
- MIC P. aeruginosa FADDI-PA025 [1]: 1 µg/mL (≈ 0.857 µM)
- MIC P. aeruginosa FADDI-PA038 [2]: 1 µg/mL (≈ 0.857 µM)
- MIC P. aeruginosa ATCC 27853 (P. aeruginosa ATCC 27853 [3]): 1 µg/mL (≈ 0.857 µM)
- MIC, No Survanta (P. aeruginosa ATCC 27853 [3]): 1 µg/mL (≈ 0.857 µM)
- MIC K. pneumoniae FADDI-KP065 [4]: 0.25 µg/mL (≈ 0.214 µM)
- MIC K. pneumoniae FADDI-KP032 [5]: 0.25 µg/mL (≈ 0.214 µM)
- MTD [6]: 10 mg/kg
- MTD, single replicate (Swiss mice): 10.1 mg/kg and 11.1 mg/kg
- MIC A. baumannii ATCC 19606 (A. baumannii ATCC 19606): 1 µg/mL (≈ 0.857 µM)
- MIC A. baumannii FADDI-AB034 (A. baumannii FADDI-AB034): 0.25 µg/mL (≈ 0.214 µM)
- MIC A. baumannii FADDI-AB030 (A. baumannii FADDI-AB030): 0.5 µg/mL (≈ 0.428 µM)
- Log10 CFU/mL blood at 4 h, Mean (P. aeruginosa ATCC 27853 [7]): 3.39 Log10 CFU/mL blood
- Δlog10 CFU/mL blood (mean) (P. aeruginosa ATCC 27853 [7]): −3.89 log10 CFU/mL blood
- Log10 CFU/mL blood at 4 h, single mouse (P. aeruginosa ATCC 27853 [7]): 3.09 Log10 CFU/mL blood and 3.94 Log10 CFU/mL blood and 3.15 Log10 CFU/mL blood
- Delta Log10 CFU/mL blood at 4 h, single mouse (P. aeruginosa ATCC 27853 [7]): -4.19 Log10 CFU/mL blood and -3.34 Log10 CFU/mL blood and -4.13 Log10 CFU/mL blood
- Kidney histopathology (SQS Score) (Swiss mice, kidney): +1 (SQS + 1 = mild damage (overall score, 1 to <15))
- Kidney histopathology, mice with the SQS score (Swiss mice, kidney): 1/3

Molecule: SPR206
- single dose at which neurotoxicity was observed (human subjects): exceeding 200 mg
